{"source": "paper PMC5218480", "about": "(PLoS ONE, 2017)", "tested_on": "MV-4-11 cells", "assay": "Gene expression microarray analysis (Affymetrix PrimeView) and GSEA", "type": "cell-based, human", "parameters": "RFU PODN (11730768_x_at) / Fold change /veh PODN (11730768_x_at) / RFU LINC00158 (11744669_a_at) / Fold change /veh LINC00158 (11744669_a_at) / RFU DUSP10 (11751237_a_at) / Fold change /veh DUSP10 (11751237_a_at) / RFU ID3 (11757404_x_at) / Fold change /veh ID3 (11757404_x_at) / RFU PLEKHG5 (11737974_s_at) / Fold change /veh PLEKHG5 (11737974_s_at) / RFU LRRC4B (11730491_at) / Fold change /veh LRRC4B (11730491_at) / RFU GIMAP4 (11747438_a_at) / Fold change /veh GIMAP4 (11747438_a_at) / RFU KRT8 (11758183_x_at) / Fold change /veh KRT8 (11758183_x_at) / RFU CNN1 (11734310_a_at) / Fold change /veh CNN1 (11734310_a_at) / RFU VPS37D (11726825_at) / Fold change /veh VPS37D (11726825_at) / RFU C10orf10 (11716522_x_at) / Fold change /veh C10orf10 (11716522_x_at) / RFU KIR2DL2 /// KIR2DL4 /// KIR2DL5A /// KIR2DL5B /// KIR2DS1 /// KIR2DS2 /// KIR2DS3 /// KIR2DS4 /// KIR3DL3 /// KIR3DL3 /// KIR3DS1 (11738374_at) / Fold change /veh KIR2DL2 /// KIR2DL4 /// KIR2DL5A /// KIR2DL5B /// KIR2DS1 /// KIR2DS2 /// KIR2DS3 /// KIR2DS4 /// KIR3DL3 /// KIR3DL3 /// KIR3DS1 (11738374_at) / RFU C1QL1 (11718748_at) / Fold change /veh C1QL1 (11718748_at) / RFU TMPRSS4 (11747572_a_at) / Fold change /veh TMPRSS4 (11747572_a_at) / RFU HAMP (11756126_x_at) / Fold change /veh HAMP (11756126_x_at) / RFU RNFT2 (11725882_a_at) / Fold change /veh RNFT2 (11725882_a_at) / RFU NR4A2 (11747474_a_at) / Fold change /veh NR4A2 (11747474_a_at) / RFU ABCC12 (11746883_a_at) / Fold change /veh ABCC12 (11746883_a_at) / RFU TMEM136 (11760407_x_at) / Fold change /veh TMEM136 (11760407_x_at) / RFU CLDN22 /// WWC2 (11732394_at) / Fold change /veh CLDN22 /// WWC2 (11732394_at) / RFU HLA-DPB1 (11760878_x_at) / Fold change /veh HLA-DPB1 (11760878_x_at) / RFU SPINT1 (11716480_a_at) / Fold change /veh SPINT1 (11716480_a_at) / RFU GAP43 (11754022_s_at) / Fold change /veh GAP43 (11754022_s_at) / RFU A4GNT (11735810_at) / Fold change /veh A4GNT (11735810_at) / RFU PRB3 (11715151_x_at) / Fold change /veh PRB3 (11715151_x_at) / RFU TUBB4B (11761932_at) / Fold change /veh TUBB4B (11761932_at) / RFU CAPN14 (11732068_a_at) / Fold change /veh CAPN14 (11732068_a_at) / RFU TMCC2 (11721928_a_at) / Fold change /veh TMCC2 (11721928_a_at) / RFU IRGQ (11745062_a_at) / Fold change /veh IRGQ (11745062_a_at) / RFU FAM174B (11720279_a_at) / Fold change /veh FAM174B (11720279_a_at) / RFU TMPRSS4 (11748680_a_at) / Fold change /veh TMPRSS4 (11748680_a_at) / RFU FAM212B (11763350_a_at) / Fold change /veh FAM212B (11763350_a_at) / RFU PLEKHG5 (11743358_a_at) / Fold change /veh PLEKHG5 (11743358_a_at) / RFU ZSCAN30 (11745921_a_at) / Fold change /veh ZSCAN30 (11745921_a_at) / RFU CMKLR1 (11741424_a_at) / Fold change /veh CMKLR1 (11741424_a_at) / RFU LOC101060620 /// MAPK8IP1 (11723275_at) / Fold change /veh LOC101060620 /// MAPK8IP1 (11723275_at) / RFU SPTSSB (11747773_x_at) / Fold change /veh SPTSSB (11747773_x_at) / RFU PRSS12 (11739890_at) / Fold change /veh PRSS12 (11739890_at) / RFU BIN1 (11741810_x_at) / Fold change /veh BIN1 (11741810_x_at) / RFU WNT11 (11732464_a_at) / Fold change /veh WNT11 (11732464_a_at) / RFU C10orf10 (11716521_a_at) / Fold change /veh C10orf10 (11716521_a_at) / RFU C5orf56 (11738089_at) / Fold change /veh C5orf56 (11738089_at) / RFU CYB561 (11721691_x_at) / Fold change /veh CYB561 (11721691_x_at) / RFU ANKRD19P (11752326_a_at) / Fold change /veh ANKRD19P (11752326_a_at) / RFU OR2T12 /// OR2T33 /// OR2T8 (11738714_s_at) / Fold change /veh OR2T12 /// OR2T33 /// OR2T8 (11738714_s_at) / RFU VCAN (11748164_a_at) / Fold change /veh VCAN (11748164_a_at) / RFU JSRP1 (11732532_at) / Fold change /veh JSRP1 (11732532_at) / RFU KRTAP10-11 (11738290_x_at) / Fold change /veh KRTAP10-11 (11738290_x_at) / RFU MYO3A (11730013_a_at) / Fold change /veh MYO3A (11730013_a_at) / RFU EBF3 (11725865_a_at) / Fold change /veh EBF3 (11725865_a_at) / RFU CAMK2N1 (11719241_x_at) / Fold change /veh CAMK2N1 (11719241_x_at) / RFU C5orf56 (11738088_a_at) / Fold change /veh C5orf56 (11738088_a_at) / RFU OLFML3 (11715873_a_at) / Fold change /veh OLFML3 (11715873_a_at) / RFU LOC100653217 /// NTM (11731650_a_at) / Fold change /veh LOC100653217 /// NTM (11731650_a_at) / RFU MAPK11 (11762145_a_at) / Fold change /veh MAPK11 (11762145_a_at) / RFU FIZ1 (11724087_x_at) / Fold change /veh FIZ1 (11724087_x_at) / RFU OASL (11726364_x_at) / Fold change /veh OASL (11726364_x_at) / RFU SOX15 (11748057_x_at) / Fold change /veh SOX15 (11748057_x_at) / RFU CD79A (11719716_a_at) / Fold change /veh CD79A (11719716_a_at) / RFU HIST1H1D (11736915_at) / Fold change /veh HIST1H1D (11736915_at) / RFU CASKIN2 (11723855_a_at) / Fold change /veh CASKIN2 (11723855_a_at) / RFU LOC730098 (11760151_x_at) / Fold change /veh LOC730098 (11760151_x_at) / RFU OR4N2 (11742367_at) / Fold change /veh OR4N2 (11742367_at) / RFU PRRT2 (11749266_a_at) / Fold change /veh PRRT2 (11749266_a_at) / RFU SNX32 (11753110_a_at) / Fold change /veh SNX32 (11753110_a_at) / RFU CDHR5 (11726645_a_at) / Fold change /veh CDHR5 (11726645_a_at) / RFU RCAN1 (11760418_a_at) / Fold change /veh RCAN1 (11760418_a_at) / RFU FAM167A (11723789_a_at) / Fold change /veh FAM167A (11723789_a_at) / RFU FAM26E (11764081_at) / Fold change /veh FAM26E (11764081_at) / RFU ISYNA1 (11749810_s_at) / Fold change /veh ISYNA1 (11749810_s_at) / RFU ACY1 (11761880_at) / Fold change /veh ACY1 (11761880_at) / RFU 11764098_at / Fold change /veh 11764098_at / RFU SAMD14 (11745864_x_at) / Fold change /veh SAMD14 (11745864_x_at) / RFU NPB (11741838_a_at) / Fold change /veh NPB (11741838_a_at) / RFU TMPRSS6 (11731388_a_at) / Fold change /veh TMPRSS6 (11731388_a_at) / RFU KRTAP10-2 (11738614_at) / Fold change /veh KRTAP10-2 (11738614_at) / RFU ARHGAP8 /// PRR5-ARHGAP8 (11727945_x_at) / Fold change /veh ARHGAP8 /// PRR5-ARHGAP8 (11727945_x_at) / RFU KRTAP5-7 /// NADSYN1 (11734609_at) / Fold change /veh KRTAP5-7 /// NADSYN1 (11734609_at) / RFU RASL12 (11751679_a_at) / Fold change /veh RASL12 (11751679_a_at) / RFU CDKN2B (11736163_a_at) / Fold change /veh CDKN2B (11736163_a_at) / RFU PRF1 (11729649_at) / Fold change /veh PRF1 (11729649_at) / RFU, ZNF638 /// ZNF638-IT1 / Fold change vs veh, ZNF638 /// ZNF638-IT1 / RFU, PANK3 / Fold change vs veh, PANK3 / RFU, SH3YL1 / Fold change vs veh, SH3YL1 / RFU, ZEB2 / Fold change vs veh, ZEB2 / RFU, NRIP1 / Fold change vs veh, NRIP1 / RFU, PTTG1IP / Fold change vs veh, PTTG1IP / RFU, CAPN2 / Fold change vs veh, CAPN2 / RFU, MED14 / Fold change vs veh, MED14 / RFU, SNORA58 / Fold change vs veh, SNORA58 / RFU, C1orf63 / Fold change vs veh, C1orf63 / RFU, LRRFIP1 / Fold change vs veh, LRRFIP1 / RFU, NDUFAF7 / Fold change vs veh, NDUFAF7 / RFU, SLC12A2 / Fold change vs veh, SLC12A2 / RFU, IBTK / Fold change vs veh, IBTK / RFU, ESF1 / Fold change vs veh, ESF1 / Fold change vs veh, TMEM50B / RFU, TAOK1 / Fold change vs veh, TAOK1 / RFU, ACBD3 / Fold change vs veh, ACBD3 / RFU, TMA16 / Fold change vs veh, TMA16 / RFU, RWDD3 / Fold change vs veh, RWDD3 / RFU, BCAT1 / Fold change vs veh, BCAT1 / RFU, EDEM3 / Fold change vs veh, EDEM3 / RFU, TMEM33 / Fold change vs veh, TMEM33 / RFU, WDR75 / Fold change vs veh, WDR75 / RFU, AHCTF1 / Fold change vs veh, AHCTF1 / RFU, TFRC / Fold change vs veh, TFRC / RFU, ZDHHC17 / Fold change vs veh, ZDHHC17 / RFU, NOM1 / Fold change vs veh, NOM1 / RFU, ARL8B / Fold change vs veh, ARL8B / RFU, ZBTB11 / Fold change vs veh, ZBTB11 / RFU, TAMM41 / Fold change vs veh, TAMM41 / RFU, KIAA1704 /// LOC100996395 / Fold change vs veh, KIAA1704 /// LOC100996395 / RFU, ING1 / Fold change vs veh, ING1 / RFU, TRMT61B / Fold change vs veh, TRMT61B / RFU, FUBP3 / Fold change vs veh, FUBP3 / RFU, TP53 / Fold change vs veh, TP53 / RFU, TNKS2 / Fold change vs veh, TNKS2 / RFU, ZFP14 / Fold change vs veh, ZFP14 / RFU, ACTR2 / Fold change vs veh, ACTR2 / RFU, PPP3R1 / Fold change vs veh, PPP3R1 / RFU, PIK3R1 / Fold change vs veh, PIK3R1 / RFU, HNRNPA1 / Fold change vs veh, HNRNPA1 / RFU, RNF170 / Fold change vs veh, RNF170 / RFU, ZNF28 / Fold change vs veh, ZNF28 / RFU, RNGTT / Fold change vs veh, RNGTT / RFU, OGT / Fold change vs veh, OGT / RFU, BRD1 / Fold change vs veh, BRD1 / RFU, MARS / Fold change vs veh, MARS / RFU, ZNF655 / Fold change vs veh, ZNF655 / RFU, FAHD1 / Fold change vs veh, FAHD1 / RFU, BDP1 / Fold change vs veh, BDP1 / RFU, LRRCC1 / Fold change vs veh, LRRCC1 / RFU, ARID1A / Fold change vs veh, ARID1A / RFU, ZNF146 / Fold change vs veh, ZNF146 / RFU, ZNF330 / Fold change vs veh, ZNF330 / RFU, GPN3 / Fold change vs veh, GPN3 / RFU, C9orf123 / Fold change vs veh, C9orf123 / RFU, N4BP2L2 / Fold change vs veh, N4BP2L2 / RFU, ARFIP1 / Fold change vs veh, ARFIP1 / RFU, FAM179B / Fold change vs veh, FAM179B / RFU, BCL10 / Fold change vs veh, BCL10 / RFU, UHRF1BP1L / Fold change vs veh, UHRF1BP1L / RFU, BET1 / Fold change vs veh, BET1 / RFU, CNOT2 / Fold change vs veh, CNOT2 / RFU, ZNF268 / Fold change vs veh, ZNF268 / Fold change vs veh, ZNF507 / RFU, DGCR2 / Fold change vs veh, DGCR2 / RFU, WDSUB1 / Fold change vs veh, WDSUB1 / Fold change vs veh, HSP90B1 /// MIR3652 / RFU, ADSS / Fold change vs veh, ADSS / RFU, GK / Fold change vs veh, GK / RFU, ZNF148 / Fold change vs veh, ZNF148 / RFU, TAF9 / Fold change vs veh, TAF9 / RFU, SLC1A5 / Fold change vs veh, SLC1A5 / RFU, SLMO2 / Fold change vs veh, SLMO2 / RFU, ABCC4 / Fold change vs veh, ABCC4 / RFU, LOC101060439 /// RAP1B / Fold change vs veh, LOC101060439 /// RAP1B / RFU, RFX7 / Fold change vs veh, RFX7 / RFU, GTPBP10 / Fold change vs veh, GTPBP10 / RFU, CNEP1R1 / Fold change vs veh, CNEP1R1 / RFU, BIVM-ERCC5 /// ERCC5 / Fold change vs veh, BIVM-ERCC5 /// ERCC5 / RFU, ILF3 / Fold change vs veh, ILF3 / RFU 11762660_at / Fold change /veh 11762660_at / RFU VCAN (11757783_s_at) / Fold change /veh VCAN (11757783_s_at) / RFU DDX43 (11728927_at) / Fold change /veh DDX43 (11728927_at) / RFU KRT8 (11758188_x_at) / Fold change /veh KRT8 (11758188_x_at) / RFU NKD1 (11759106_at) / Fold change /veh NKD1 (11759106_at) / RFU SRD5A1 (11742802_a_at) / Fold change /veh SRD5A1 (11742802_a_at) / RFU TPSAB1 /// TPSB2 (11721975_s_at) / Fold change /veh TPSAB1 /// TPSB2 (11721975_s_at) / RFU GSTM3 (11746129_a_at) / Fold change /veh GSTM3 (11746129_a_at) / RFU IL23R (11737362_x_at) / Fold change /veh IL23R (11737362_x_at) / RFU TMEM51 (11727254_a_at) / Fold change /veh TMEM51 (11727254_a_at) / RFU PIWIL2 (11732686_x_at) / Fold change /veh PIWIL2 (11732686_x_at) / RFU ORM1 (11744905_x_at) / Fold change /veh ORM1 (11744905_x_at) / RFU CCDC152 (11743942_at) / Fold change /veh CCDC152 (11743942_at) / RFU ECM1 (11717891_a_at) / Fold change /veh ECM1 (11717891_a_at) / RFU IL23R (11748794_a_at) / Fold change /veh IL23R (11748794_a_at) / RFU TNFAIP8L3 (11732012_x_at) / Fold change /veh TNFAIP8L3 (11732012_x_at) / RFU MBOAT4 (11741988_at) / Fold change /veh MBOAT4 (11741988_at) / RFU 11764193_at / Fold change /veh 11764193_at / RFU TMEM53 (11763286_at) / Fold change /veh TMEM53 (11763286_at) / RFU MAGEB2 (11727129_at) / Fold change /veh MAGEB2 (11727129_at) / RFU TMEM200A (11744735_a_at) / Fold change /veh TMEM200A (11744735_a_at) / RFU CCDC152 (11751479_a_at) / Fold change /veh CCDC152 (11751479_a_at) / RFU FAM211A (11726209_a_at) / Fold change /veh FAM211A (11726209_a_at) / RFU RGS16 (11746705_a_at) / Fold change /veh RGS16 (11746705_a_at) / RFU VCAN (11755009_s_at) / Fold change /veh VCAN (11755009_s_at) / RFU RHOB (11743442_s_at) / Fold change /veh RHOB (11743442_s_at) / RFU RGS16 (11720943_a_at) / Fold change /veh RGS16 (11720943_a_at) / RFU RGS16 (11720944_at) / Fold change /veh RGS16 (11720944_at) / RFU, VPS4B / Fold change vs veh, VPS4B / RFU, CREB1 / Fold change vs veh, CREB1 / RFU, DNAJC13 / Fold change vs veh, DNAJC13 / RFU, GNAQ / Fold change vs veh, GNAQ / RFU, CDK5R1 / Fold change vs veh, CDK5R1 / RFU, ZRANB3 / Fold change vs veh, ZRANB3 / RFU, CUL4A / Fold change vs veh, CUL4A / RFU, CCNY / Fold change vs veh, CCNY / RFU, UFL1 / Fold change vs veh, UFL1 / RFU, COG3 / Fold change vs veh, COG3 / RFU, DIAPH2 / Fold change vs veh, DIAPH2 / RFU, SKA2 / Fold change vs veh, SKA2 / RFU, AFF3 / Fold change vs veh, AFF3 / RFU, LMF1 / Fold change vs veh, LMF1 / RFU, IPO11 / Fold change vs veh, IPO11 / RFU, DFFB / Fold change vs veh, DFFB / RFU, FOXP1 / Fold change vs veh, FOXP1 / RFU, CARD8 / Fold change vs veh, CARD8 / RFU, STRN3 / Fold change vs veh, STRN3 / RFU, ADK / Fold change vs veh, ADK / RFU, RASSF2 / Fold change vs veh, RASSF2 / RFU, WIPF1 / Fold change vs veh, WIPF1 / RFU, LARP1B / Fold change vs veh, LARP1B / RFU, RASA1 / Fold change vs veh, RASA1 / RFU, RB1 / Fold change vs veh, RB1 / RFU, PPFIA1 / Fold change vs veh, PPFIA1 / RFU, MAT2A / Fold change vs veh, MAT2A / RFU, CCT5 / Fold change vs veh, CCT5 / RFU, WDR92 / Fold change vs veh, WDR92 / RFU, CUX1 / Fold change vs veh, CUX1 / RFU, TTC7A / Fold change vs veh, TTC7A / RFU, TMEM135 / Fold change vs veh, TMEM135 / RFU, DEPTOR / Fold change vs veh, DEPTOR / RFU, CPM / Fold change vs veh, CPM / RFU, DNAJB6 / Fold change vs veh, DNAJB6 / RFU, CACNA2D3 / Fold change vs veh, CACNA2D3 / RFU, DTX4 / Fold change vs veh, DTX4 / RFU, TFCP2 / Fold change vs veh, TFCP2 / RFU, GMCL1 /// GMCL1P1 / Fold change vs veh, GMCL1 /// GMCL1P1 / RFU, AEBP2 / Fold change vs veh, AEBP2 / RFU, SNHG1 /// SNORD22 /// SNORD25 /// SNORD26 /// SNORD27 /// SNORD28 /// SNORD29 /// SNORD31 / Fold change vs veh, SNHG1 /// SNORD22 /// SNORD25 /// SNORD26 /// SNORD27 /// SNORD28 /// SNORD29 /// SNORD31 / Fold change (Aza/veh), C12orf56 (ProbeSet 11735607_a_at) / Fold change (ACY-1035/veh), C12orf56 (ProbeSet 11735607_a_at) / Fold change (Aza/veh), FGFR1OP (ProbeSet 11751329_s_at) / Fold change (ACY-1035/veh), FGFR1OP (ProbeSet 11751329_s_at) / Fold change (Aza/veh), VPS36 (ProbeSet 11739960_a_at) / Fold change (ACY-1035/veh), VPS36 (ProbeSet 11739960_a_at) / RFU SYPL1 (11715823_x_at) / Fold change /veh SYPL1 (11715823_x_at) / RFU IGFBP7 (11715501_s_at) / Fold change /veh IGFBP7 (11715501_s_at) / RFU REEP3 (11722064_at) / Fold change /veh REEP3 (11722064_at) / RFU IGLL1 (11728026_x_at) / Fold change /veh IGLL1 (11728026_x_at): dose or concentration left out as unconfirmed", "conditions": "ProbeSet 11738335_x_at; LIST B", "data": [{"compound": "Nc1ncn([C@@H]2O[C@H](CO)[C@@H](O)[C@H]2O)c(=O)n1", "note": "[azacitidine]", "values": [{"measurement": "RFU, TP53", "result": 77.85, "unit": "RFU"}]}]}
